Consider 13 compounds from article PMC13626384 (Journal of medicinal chemistry, 2025).

Where two headings read alike, the source gives them in different places. Where only a bound is given, the exact number is not on record here.

Usually IC50 stands for the concentration that inhibits the measured activity by half. Usually Papp A→B stands for the apparent permeability from the apical to the basolateral side of a cell layer. Read a high Papp A→B as fast passage. By Papp B→A is commonly meant the apparent permeability from the basolateral to the apical side of a cell layer.

One data set has as its system SF188 cell line. In words: Cytotoxicity against SF188 cells. The format is cell-based, human.
For the next data set, the system named is H460 cell line. In words: Cytotoxicity against H460 cells. The format is cell-based. Particulars: read-out: H460 IC50; non-small cell lung cancer cell line.
A short description of data set [1]: PAMPA-BBB permeability assay. Particulars: PAMPA-BBB. In general terms: PAMPA measures passive passage across an artificial lipid membrane.
In a further data set the test system is D283-med cell line. In words: Cytotoxicity against D283-med cells. Format: cell-based, human.
Data set [2] can be described thus: Caco-2 cell permeability and efflux. Format: in vitro ADME, human. Particulars: human, Caco-2.
[3] abbreviates: read-out: SF188 IC50, glioblastoma cell line.
Where [4] appears, read: read-out: D283-med IC50, medulloblastoma cell line.

With `CC(C)C[C@H](NC(=O)[C@@H]1Cc2c(F)c(F)c(c(F)c2F)S(=O)(=O)c2cccc(c2)CC(=O)N[C@@H]([C@H](C)O)C(=O)N1)C(=O)[C@@]1(C)CO1` [Compound 27, (5S,8S)-3^2,3^3,3^5,3^6-Tetrafluoro-8-((S)-1-hydroxyethyl)-N-((S)-4-methyl-1-((R)-2-methyloxiran-2-yl)-1-oxopentan-2-yl)-7,10-dioxo-2-thia-6,9-diaza-1(1,3),3(1,4)-dibenzenacycloundecaphane-5-carboxamide 2,2-dioxide], the 50% inhibitory concentration (IC50) with SF188 cell line (setting [3]) was 72 ± 10 nM; with H460 cell line it was 360 ± 56 nM; with D283-med cell line (setting [4]), 28 ± 10 nM. In addition, in data set [1], the “% Recovery” value was found to be 88%. The “Mean Permeability” value in data set [1] was 1.40 10^−6 cm/sec.
With `C[C@H]1O[C@@H](O[C@H]2[C@@H](O)C[C@H](O[C@H]3[C@@H](O)C[C@H](O[C@H]4CC[C@@]5(C)[C@H](CC[C@@H]6[C@@H]5C[C@@H](O)[C@]5(C)[C@@H](C7=CC(=O)OC7)CC[C@]65O)C4)O[C@@H]3C)O[C@@H]2C)C[C@H](O)[C@@H]1O` [Digoxin, reference compound], in data set [2], the apical-to-basolateral permeability (Papp A→B) was 1.3 ×10⁻⁶ cm/s and the Papp B→A stood at 13 ×10⁻⁶ cm/s.
As for `CC(C)C[C@H](NC(=O)[C@@H]1Cc2ccc(cc2)S(=O)(=O)CCCCCC(=O)NC(C(C)C)C(=O)N1)C(=O)[C@@]1(C)CO1` (stereo partly drawn) [Compound 38, (13S)-10-Isopropyl-N-((S)-4-methyl-1-((R)-2-methyloxiran-2-yl)-1-oxopentan-2-yl)-8,11-dioxo-2-thia-9,12-diaza-1(1,4)-benzenacyclotetradecaphane-13-carboxamide 2,2-dioxide], the concentration for half-maximal inhibition (IC50) in the data set on SF188 cell line (setting [3]) amounted to 157 ± 45 nM; in the data set with H460 cell line, 287 ± 42 nM; in the data set with D283-med cell line (setting [4]), 16 ± 2 nM. The “% Recovery” value in data set [1] stood at 99%. Moreover, the “Mean Permeability” value in data set [1] is 0.27 10^−6 cm/sec.
For `CC(C)C[C@H](NC(=O)[C@@H]1Cc2c(F)c(F)c(c(F)c2F)S(=O)(=O)c2cccc(c2)CC(=O)N[C@@H](C(C)(C)O)C(=O)N1)C(=O)[C@@]1(C)CO1` [Compound 24, (5S,8S)-3^2,3^3,3^5,3^6-Tetrafluoro-8-(2-hydroxypropan-2-yl)-N-((S)-4-methyl-1-((R)-2-methyloxiran-2-yl)-1-oxopentan-2-yl)-7,10-dioxo-2-thia-6,9-diaza-1(1,3),3(1,4)-dibenzenacycloundecaphane-5-carboxamide 2,2-dioxide], in that order: 100 ± 7 nM, 410 ± 59 nM, 54 ± 2 nM, 79% and 2.06 10^−6 cm/sec.
Consider `CC(C)C[C@H](NC(=O)[C@@H]1Cc2c(F)c(F)c(c(F)c2F)Sc2cccc(c2)CC(=O)N[C@H](C(C)C)CC(=O)N1)C(=O)[C@@]1(C)CO1` [Compound 16, (5S,9S)-3^2,3^3,3^5,3^6-Tetrafluoro-9-isopropyl-N-((S)-4-methyl-1-((R)-2-methyloxiran-2-yl)-1-oxopentan-2-yl)-7,11-dioxo-2-thia-6,10-diaza-1(1,3),3(1,4)-dibenzenacyclododecaphane-5-carboxamide], for which the half-inhibitory concentration (IC50) with SF188 cell line (setting [3]) was above 15000 nM; with H460 cell line it was above 15000 nM; in the data set on D283-med cell line (setting [4]) it was 6090 nM.
`CC(C)C[C@H](NC(=O)[C@@H]1Cc2c(F)c(F)c(c(F)c2F)S(=O)(=O)c2ccc(cc2)CCC(=O)N[C@@H](C(C)C)C(=O)N1)C(=O)[C@@]1(C)CO1` [Compound 29, (5S,8S)-3^2,3^3,3^5,3^6-Tetrafluoro-8-isopropyl-N-((S)-4-methyl-1-((R)-2-methyloxiran-2-yl)-1-oxopentan-2-yl)-7,10-dioxo-2-thia-6,9-diaza-1,3(1,4)-dibenzenacyclododecaphane-5-carboxamide 2,2-dioxide]: the 50% inhibitory concentration (IC50) with SF188 cell line (setting [3]) is 150 ± 12 nM; in the data set on H460 cell line, 470 ± 154 nM; in the data set with D283-med cell line (setting [4]) it was 146 ± 29 nM.
`CC(C)C[C@H](NC(=O)[C@@H]1Cc2c(F)c(F)c(c(F)c2F)Sc2cccc(c2)CC(=O)NC(C)(C)C(=O)N1)C(=O)[C@@]1(C)CO1` [Compound 20, (S)-3^2,3^3,3^5,3^6-Tetrafluoro-8,8-dimethyl-N-((S)-4-methyl-1-((R)-2-methyloxiran-2-yl)-1-oxopentan-2-yl)-7,10-dioxo-2-thia-6,9-diaza-1(1,3),3(1,4)-dibenzenacycloundecaphane-5-carboxamide]: the 50% inhibitory concentration (IC50) with SF188 cell line (setting [3]) came out at 611 ± 85 nM; in the data set with H460 cell line it was 828 ± 57 nM; with D283-med cell line (setting [4]), 662 ± 44 nM.
For `CC(C)C[C@H](NC(=O)[C@@H]1Cc2c(F)c(F)c(c(F)c2F)Sc2cccc(c2)CC(=O)NCC(=O)N1)C(=O)[C@@]1(C)CO1` [Compound 21, (S)-32,33,35,36-Tetrafluoro-N-((S)-4-methyl-1-((R)-2-methyloxiran-2-yl)-1-oxopentan-2-yl)-7,10-dioxo-2-thia-6,9-diaza-1(1,3),3(1,4)-dibenzenacycloundecaphane-5-carboxamide], in that order: above 15000 nM, above 15000 nM and 5000 nM.
On to `Cn1cc(CNCC2CCN(c3ncc(C(=O)NO)cn3)CC2)c2ccccc21` [Quisinostat, reference compound], for which the half-inhibitory concentration (IC50) with SF188 cell line (Homo sapiens, SF-188, read-out: SF188 IC50, glioblastoma cell line) was 30 to 43 nM; in the data set on SF188 cell line (setting [3]) it was 43 ± 2 nM; with H460 cell line, 30 ± 3 nM; with D283-med cell line (Homo sapiens, D283 Med, read-out: D283-med IC50, medulloblastoma cell line) it was 30 to 43 nM; with D283-med cell line (setting [4]) it was 37 ± 2 nM.
With “(5S,8S)-3^2,3^3,3^5,3^6-Tetrafluoro-8-isopropyl-9-methyl-N-((S)-4-methyl-1-((R)-2-methyloxiran-2-yl)-1-oxopentan-2-yl)-7,10-dioxo-2-thia-6,9-diaza-1(1,3),3(1,4)-dibenzenacycloundecaphane-5-carboxamide 2,2-dioxide [Compound 30]”, the IC50 in the data set with SF188 cell line (setting [3]) worked out at 1680 nM; in the data set with H460 cell line it was 3200 nM; in the data set with D283-med cell line (setting [4]), 1470 nM.
For `CC(C)C[C@@H](NC(=O)[C@@H]1Cc2ccc(cc2)S(=O)(=O)CCCCCC(=O)NC(C)(C)C(=O)N1)C(=O)[C@@]1(C)CO1` [Compound 37, (S)-10,10-Dimethyl-N-((R)-4-methyl-1-((R)-2-methyloxiran-2-yl)-1-oxopentan-2-yl)-8,11-dioxo-2-thia-9,12-diaza-1(1,4)-benzenacyclotetradecaphane-13-carboxamide 2,2-dioxide], in that order: 4420 nM, 1720 nM and 590 ± 20 nM.
For `CC(C)C[C@H](NC(=O)[C@@H]1Cc2ccc(cc2)SCCCCCC(=O)NC(C)(C)C(=O)N1)C(=O)[C@@]1(C)CO1` [Compound 36, (S)-10,10-Dimethyl-N-((S)-4-methyl-1-((R)-2-methyloxiran-2-yl)-1-oxopentan-2-yl)-8,11-dioxo-2-thia-9,12-diaza-1(1,4)-benzenacyclotetradecaphane-13-carboxamide], in that order: 2260 nM, 2330 nM and 1440 nM.
In the case of “(5S,8S)-32,33,35,36-Tetrafluoro-8-isopropyl-N-((S)-4-methyl-1-((R)-2-methyloxiran-2-yl)-1-oxopentan-2-yl)-7,10-dioxo-2-thia-6,9-diaza-1,3(1,4)-dibenzenacyclododecaphane-5-carboxamide [Compound 18]”, the IC50 in the data set on SF188 cell line (setting [3]) was 239 ± 10 nM; with H460 cell line it was 1080 nM; in the data set with D283-med cell line (setting [4]), 232 ± 12 nM.
